The NIST ThermoML archive (doi:10.1021/acs.jced.7b00750)

Assay: xn = mol fraction of the nth substance listed
Conditions: 100 kPa, Liquid, Vibrating tube method

CNC(N)=O [methylurea] + O
Conditions | mass density [kg/m3]
274.15 K, x1 = 0.00244 | 1001.77
274.15 K, x1 = 0.00291 | 1002.12
274.15 K, x1 = 0.00483 | 1003.58
274.15 K, x1 = 0.00553 | 1004.11
274.15 K, x1 = 0.00799 | 1005.96
274.15 K, x1 = 0.00834 | 1006.21
274.15 K, x1 = 0.01081 | 1008.05
274.15 K, x1 = 0.01421 | 1010.56
275.15 K, x1 = 0.00244 | 1001.8
275.15 K, x1 = 0.00291 | 1002.15
275.15 K, x1 = 0.00483 | 1003.6
275.15 K, x1 = 0.00553 | 1004.13
275.15 K, x1 = 0.00799 | 1005.98
275.15 K, x1 = 0.00834 | 1006.23
275.15 K, x1 = 0.01081 | 1008.07
275.15 K, x1 = 0.01421 | 1010.58
276.15 K, x1 = 0.00244 | 1001.82
276.15 K, x1 = 0.00291 | 1002.17
276.15 K, x1 = 0.00483 | 1003.62
276.15 K, x1 = 0.00553 | 1004.14
276.15 K, x1 = 0.00799 | 1005.98
276.15 K, x1 = 0.00834 | 1006.24
276.15 K, x1 = 0.01081 | 1008.06
276.15 K, x1 = 0.01421 | 1010.58
277.15 K, x1 = 0.00244 | 1001.82
277.15 K, x1 = 0.00291 | 1002.17
277.15 K, x1 = 0.00483 | 1003.61
277.15 K, x1 = 0.00553 | 1004.13
277.15 K, x1 = 0.00799 | 1005.97
277.15 K, x1 = 0.00834 | 1006.23
277.15 K, x1 = 0.01081 | 1008.05
277.15 K, x1 = 0.01421 | 1010.54
278.15 K, x1 = 0.00244 | 1001.8
278.15 K, x1 = 0.00291 | 1002.15
278.15 K, x1 = 0.00483 | 1003.58
278.15 K, x1 = 0.00553 | 1004.1
278.15 K, x1 = 0.00799 | 1005.92
278.15 K, x1 = 0.00834 | 1006.18
278.15 K, x1 = 0.01081 | 1007.99
278.15 K, x1 = 0.01421 | 1010.45
278.15 K, x1 = 0.01662 | 1012.18
278.15 K, x1 = 0.019 | 1013.89
278.15 K, x1 = 0.02321 | 1016.84
278.15 K, x1 = 0.03185 | 1022.7
278.15 K, x1 = 0.04218 | 1029.47
278.15 K, x1 = 0.05184 | 1035.47
278.15 K, x1 = 0.06068 | 1040.78
278.15 K, x1 = 0.07071 | 1046.57
279.15 K, x1 = 0.00244 | 1001.76
279.15 K, x1 = 0.00291 | 1002.11
279.15 K, x1 = 0.00483 | 1003.53
279.15 K, x1 = 0.00553 | 1004.05
279.15 K, x1 = 0.00799 | 1005.86
279.15 K, x1 = 0.00834 | 1006.11
279.15 K, x1 = 0.01081 | 1007.92
279.15 K, x1 = 0.01421 | 1010.37
280.15 K, x1 = 0.00244 | 1001.71
280.15 K, x1 = 0.00291 | 1002.05
280.15 K, x1 = 0.00483 | 1003.47
280.15 K, x1 = 0.00553 | 1003.98
280.15 K, x1 = 0.00799 | 1005.78
280.15 K, x1 = 0.00834 | 1006.03
280.15 K, x1 = 0.01081 | 1007.83
280.15 K, x1 = 0.01421 | 1010.26
281.15 K, x1 = 0.00244 | 1001.65
281.15 K, x1 = 0.00291 | 1001.99
281.15 K, x1 = 0.00483 | 1003.39
281.15 K, x1 = 0.00553 | 1003.9
281.15 K, x1 = 0.00799 | 1005.7
281.15 K, x1 = 0.00834 | 1005.95
281.15 K, x1 = 0.01081 | 1007.72
281.15 K, x1 = 0.01421 | 1010.15
282.15 K, x1 = 0.00244 | 1001.57
282.15 K, x1 = 0.00291 | 1001.91
282.15 K, x1 = 0.00483 | 1003.31
282.15 K, x1 = 0.00553 | 1003.81
282.15 K, x1 = 0.00799 | 1005.59
282.15 K, x1 = 0.00834 | 1005.84
282.15 K, x1 = 0.01081 | 1007.61
282.15 K, x1 = 0.01421 | 1010.02
283.15 K, x1 = 0.00244 | 1001.47
283.15 K, x1 = 0.00291 | 1001.81
283.15 K, x1 = 0.00483 | 1003.2
283.15 K, x1 = 0.00553 | 1003.71
283.15 K, x1 = 0.00799 | 1005.48
283.15 K, x1 = 0.00834 | 1005.72
283.15 K, x1 = 0.01081 | 1007.48
283.15 K, x1 = 0.01421 | 1009.88
288.15 K, x1 = 0.00244 | 1000.82
288.15 K, x1 = 0.00291 | 1001.15
288.15 K, x1 = 0.00483 | 1002.51
288.15 K, x1 = 0.00553 | 1003
288.15 K, x1 = 0.00799 | 1004.72
288.15 K, x1 = 0.00834 | 1004.96
288.15 K, x1 = 0.01081 | 1006.67
288.15 K, x1 = 0.01421 | 1009.02
288.15 K, x1 = 0.01662 | 1010.63
288.15 K, x1 = 0.019 | 1012.22
288.15 K, x1 = 0.02321 | 1015
288.15 K, x1 = 0.03185 | 1020.53
288.15 K, x1 = 0.04218 | 1026.9
288.15 K, x1 = 0.05184 | 1032.59
288.15 K, x1 = 0.06068 | 1037.58
288.15 K, x1 = 0.07071 | 1043.01
298.15 K, x1 = 0.00244 | 998.69
298.15 K, x1 = 0.00291 | 999
298.15 K, x1 = 0.00483 | 1000.3
298.15 K, x1 = 0.00553 | 1000.76
298.15 K, x1 = 0.00799 | 1002.41
298.15 K, x1 = 0.00834 | 1002.63
298.15 K, x1 = 0.01081 | 1004.26
298.15 K, x1 = 0.01421 | 1006.48
298.15 K, x1 = 0.01662 | 1008.05
298.15 K, x1 = 0.019 | 1009.57
298.15 K, x1 = 0.02321 | 1012.2
298.15 K, x1 = 0.03185 | 1017.45
298.15 K, x1 = 0.04218 | 1023.52
298.15 K, x1 = 0.05184 | 1028.96
298.15 K, x1 = 0.06068 | 1033.74
298.15 K, x1 = 0.07071 | 1038.96
308.15 K, x1 = 0.00244 | 995.62
308.15 K, x1 = 0.00291 | 995.92
308.15 K, x1 = 0.00483 | 997.16
308.15 K, x1 = 0.00553 | 997.61
308.15 K, x1 = 0.00799 | 999.19
308.15 K, x1 = 0.00834 | 999.41
308.15 K, x1 = 0.01081 | 1000.97
308.15 K, x1 = 0.01421 | 1003.1
308.15 K, x1 = 0.01662 | 1004.61
308.15 K, x1 = 0.019 | 1006.07
308.15 K, x1 = 0.02321 | 1008.61
308.15 K, x1 = 0.03185 | 1013.65
308.15 K, x1 = 0.04218 | 1019.45
308.15 K, x1 = 0.05184 | 1024.66
308.15 K, x1 = 0.06068 | 1029.26
308.15 K, x1 = 0.07071 | 1034.27
323.15 K, x1 = 0.00244 | 989.55
323.15 K, x1 = 0.00291 | 989.84
323.15 K, x1 = 0.00483 | 991.02
323.15 K, x1 = 0.00553 | 991.45
323.15 K, x1 = 0.00799 | 992.95
323.15 K, x1 = 0.00834 | 993.16
323.15 K, x1 = 0.01081 | 994.63
323.15 K, x1 = 0.01421 | 996.66
323.15 K, x1 = 0.01662 | 998.09
323.15 K, x1 = 0.019 | 999.47
323.15 K, x1 = 0.02321 | 1001.87
323.15 K, x1 = 0.03185 | 1006.67
323.15 K, x1 = 0.04218 | 1012.19
323.15 K, x1 = 0.05184 | 1017.13
323.15 K, x1 = 0.06068 | 1021.48
323.15 K, x1 = 0.07071 | 1026.24
333.15 K, x1 = 0.00244 | 984.67
333.15 K, x1 = 0.00291 | 984.95
333.15 K, x1 = 0.00483 | 986.09
333.15 K, x1 = 0.00553 | 986.51
333.15 K, x1 = 0.00799 | 987.96
333.15 K, x1 = 0.00834 | 988.16
333.15 K, x1 = 0.01081 | 989.6
333.15 K, x1 = 0.01421 | 991.56
333.15 K, x1 = 0.01662 | 992.96
333.15 K, x1 = 0.019 | 994.26
333.15 K, x1 = 0.02321 | 996.6
333.15 K, x1 = 0.03185 | 1001.3
333.15 K, x1 = 0.04218 | 1006.7
333.15 K, x1 = 0.05184 | 1011.49
333.15 K, x1 = 0.06068 | 1015.72
333.15 K, x1 = 0.07071 | 1020.32
